From patent US11236302B2, “Methods and compositions for producing stem cell derived dopaminergic cells for use in treatment of neurodegenerative diseases” (BIOLAMINA AB, priority 2015, dated 2022)

What was measured:
[1] = tested on: RC17 hESCs; assay: Adherent differentiation of ventral mesencephalon progenitors on full-length laminin subtypes, day 0-11; type: cell-based, human; conditions: for yield of neural cells relative to a standard yield of 100%: laminin as coating, day 0-11 of the protocol
Text: To develop a GMP-compatible differentiation protocol for high and reproducible yield of caudilised mesDA ventral mesencephalon progenitors that would result in good graft outcome, a fully GMP-derived hES cell line RC17 from Roslin cells (hPS Creg #RCe021-A) was used. Previous research grade ventral mesencephalon differentiation protocols have implemented steps of embryoid body (EB) formation or culturing on MATRIGEL®, both of which pose problems in GMP adaptation due to difficulties in reproducibility and the content of undefined animal-derived component, respectively.
Relative to a standard yield of 100%, LN-111 yielded 170%, LN-421 yielded 294%, LN-511 yielded 223%, and LN-521 yielded 208%. RC17 cells were differentiated according to the methods described herein, but on plates that were coated with laminin-121 instead of laminin-111. FIG. 8C compares the yields, and the yields are about equal to each other, i.e. LN-121 works about as well as LN-111 as a substrate.

[2] = tested on: undifferentiated hESCs; assay: Plating of undifferentiated hESCs on laminin matrix in pluripotency medium or differentiation medium; type: cell-based, human; conditions: laminin as matrix
Experimental: When the same number of cells was plated onto LN-111 in B27 medium, the cultures remained adherent and grew to confluency after 7 days of differentiation while showing rapid downregulation of pluripotency markers.

Substance	yield of neural cells relative to a standard yield of 100% [1]	support of growth of pluripotent stem cells versus neural cells [2]	yield of dopaminergic cells on LN-121 compared with LN-111 ([1]; RC17 cells, plates coated with laminin-121 instead of laminin-111)
LN-521: the protein formed by joining α5, β2 and γ1 chains together	208%	efficiently support growth of hPSCs	
LN-511: the protein formed by joining α5, β1 and γ1 chains together	223%	efficiently support growth of hPSCs	
LN-421: the protein formed by joining α4, β2 and γ1 chains together	294%		
LN-121: the protein formed by joining α1, β2 and γ1 chains together			about equal
LN-111: the protein formed by joining α1, β1 and γ1 chains together	170%	selectively supported the growth of neural cells but not pluripotent stem cells	
